# Laboratory results taken from ChEMBL document CHEMBL1140001, “Hypoxia-driven elimination of thiopurines from their nitrobenzyl prodrugs” (Bioorg Med Chem Lett, 2007).
# Key:
# Format in all cases: ADME, cell-based
# Conditions in all cases: human
# [1] = tested on: A549; assay: Metabolic stability in A549 cells assessed as rate of prodrug loss in anoxic condition
# [2] = tested on: A549; assay: Metabolic stability in A549 cells assessed as rate of prodrug loss in aerobic condition
# [3] = tested on: A549; assay: Metabolic stability in A549 cells assessed as rate of 6-thioguanine production in anoxic condition
# [4] = tested on: A549; assay: Metabolic stability in A549 cells assessed as rate of 6-thioguanine production in aerobic condition
Activity [1],Activity [2],Activity [3],Activity [4],SMILES
39 nM/min,0 nM/min,0 nM/min,1.7 nM/min,Nc1nc(SCc2ccc([N+](=O)[O-])cc2)c2nc[nH]c2n1
100 nM/min,9.5 nM/min,72 nM/min,1.7 nM/min,CC(C)(Sc1nc(N)nc2[nH]cnc12)c1ccc([N+](=O)[O-])cc1
